These results are taken from patent publication US5491135A (priority 1993, dated 1996).

Values joined by “and” are separate entries in the source; they are usually repeats but may differ in a detail not shown here. Equal values may be shown once. Read-outs that look alike come from different tables or passages of the source. Where only a bound is given, the exact number is not on record here.

One data set relates to flaviviruses. The experiment in a line: Antiviral test of 2-dGlc. Particulars: alone. The format is cell-based.
The next data set has as its system simian varicella virus. As to the kind of experiment: Simian varicella virus infection in African green monkeys. In kind it is in vivo, African green monkey. Particulars: for Viremia, Mean PFU: mg/kg/d i.v. How it is done: Fifteen African green monkeys were weighed and bled for clinical chemistry hematology baselines. […] Each of the 15 monkeys were infected with simian varicella virus by intratracheal inoculation of 3.7×10^4 plaque forming units (PFU) of simian varicella virus. […] Control monkeys, service as infection controls, received twice daily intravenous injections of phosphate buffered saline administered at 1.0 ml/kg of body weight. A second group of three monkeys received PALA at 50 mg/kg/day given by intravenous bolus injection into the saphenous vein. A third group was given a lower dose of PALA at 20 mg/kg/day administered in a similar manner. Acyclovir treatment was administered at a subeffective dose of 10 mg/kg/day also given as intravenous bolus injection into the saphenous vein. A fifth group of three monkeys received a combined treatment of PALA at 20 mg/kg/day and acyclovir at 10 mg/kg/day. The drugs were injected into opposite veins at each time of treatment.
Drug solutions were prepared daily prior to treatment. Treatment was begun 24 hours after virus inoculation. PALA was provided as a solution in vials containing 5 ml at 100 mg/ml. The contents of three vials were pooled and seven ml of the pooled drug diluted to 28 ml to give 25 mg/ml. Five ml of this solution was diluted to […] to give 10 mg/ml. Drug was administered twice daily resulting in total daily doses of 50 or 20 mg/kg/day.
Acyclovir received as a gift from Burroughs Wellcome was weighed out as a 200 mg quantity. This was diluted with 5 ml of PBS and pH adjusted to 11.0 with 1N NaOH to effect solution. This was subsequently diluted to 40 ml to give a solution of 5 mg/ml and sterilized by filtration. Again, 1 ml per kg of body weight was administered by intravenous injection twice daily resulting in a dose of 10 mg/kg/day.
The clinical course of simian varicella infection was followed by collection of 2 ml of blood in heparin on day 2, 5, 7, 9 and 11 post-inoculation. The lymphocytes in the 2 ml specimen were separated on ficol-hypaque gradients, washed twice in RPMI-1640 medium and suspended in 10 ml of this medium. The 10 ml volume was divided between two 25 cm^2 tissue culture flasks seeded 24 hours earlier with Vero cells. After 5-7 days incubation, the culture fluids were discarded from the flasks and the cell monolayer fixed with methanol and stained with methylene blue-basic fuchsin. When dried the number of plaques in each flask were counted and the mean number of plaques between the two paired flasks were determined and expressed as a quantitation of viremia per ml of blood.
Rash was evaluated daily using a subjective scoring of severity from ± to 4+. A ± score indicates less than 10 vesicles seen on the skin of the monkey while 4+ indicates numerous vesicles covering the majority of the body surface. General clinical condition was assessed daily and anorexia noted by counting the number of food biscuits consumed daily. Monkeys dying during the course of the experiment were necropsied and simian varicella was determined as the cause of death based on the typical pathology. Baseline hematology and clinical chemistry tests were performed at three days before virus inoculation and again on day 0, immediately before virus inoculation. Following inoculation of simian varicella virus blood was taken for hematology and clinical chemistry tests at 3, 7, 9 and 11 days.
At 14 and 21 days after virus inoculation, blood was taken and the serum separated for quantitation of antibody. Antibody titers were obtained in a serum neutralization test employing a plaque reduction assay. The antibody titer expressed is the dilution of serum resulting in an 80 percent reduction in the number of plaques from that number occurring in control cultures without added serum.

The subject of a further data set is herpesvirus. Particulars: cited from earlier work.
For data set [1], the system named is respiratory syncytial virus (RSV). The experiment in a line: RSV infection in cotton rats, lung titre. In kind it is in vivo, cotton rat. The text has this: 1. 50 to 100 g cotton rats of either sex inoculated i.n. with RS A2 (pool 8-28-92) on day 0.
2. On day +1 animals were given placebo or PALA as follows:
3. All animals killed on day +4 and their lungs tested for RSV levels.

[2] abbreviates: PALA 50, rifampicin 10 or both, mg/kg/day i.v.
Setting [3] is: day 10, PALA 50, rifampicin 10 mg/kg/d or both.

Consider `O=CC[C@@H](O)[C@H](O)[C@H](O)CO` [2-dGlc, 2-deoxy-D-glucose], for which the effect against flaviviruses result in the data set on flaviviruses is on record as “no effect”.

With `Nc1nc2c(ncn2COCCO)c(=O)[nH]1` [Acyclovir, reference compound], the “effect on rash / viremia” value with simian varicella virus (PALA 20, Acyclovir 10 or both, mg/kg/day i.v.) is on record as “no effect in moderating viremia”. For the same compound, the “thrombocytopenia on day 11” value with simian varicella virus (PALA 50 or Acyclovir 10 mg/kg/day) was “two monkeys”. The “Viremia, Mean PFU” value in the data set with simian varicella virus (day 7, PALA 20, Acyclovir 10 or both) is > 1000 PFU and 504 PFU; in the data set with simian varicella virus (day 11, PALA 20, Acyclovir 10 or both), 0 PFU.

Turning to `O=C(O)CP(=O)(O)O` [PAA, phosphonoacetic acid, reference compound], in the data set with herpesvirus, the “antiherpesvirus activity” value is listed as “selective antiherpesvirus agent”.

On to `NC(=O)c1ncn([C@@H]2O[C@H](CO)[C@@H](O)[C@H]2O)n1` [RIBAVIRIN, reference compound], for which the RSV lung titre in data set [1] (ribavirin 40 mg/kg, alone or + PALA 3 mg/kg, individual animal) was 3.4 LOG10 and 2.9 LOG10 and 3.5 LOG10. The “RSV lung titre, mean (SD)” value in data set [1] (ribavirin 40 mg/kg/day, alone or + PALA 3) is 3.3 (0.3) LOG10 /G Lung.

Turning to `CO[C@H]1/C=C/O[C@@]2(C)Oc3c(C)c(O)c4c(O)c(c(/C=N/N5CCN(C)CC5)c(O)c4c3C2=O)NC(=O)/C(C)=C\C=C\[C@H](C)[C@H](O)[C@@H](C)[C@@H](O)[C@@H](C)[C@H](OC(C)=O)[C@@H]1C` [Rifampicin, reference compound], the “lesion development” value with vaccinia virus (setting [2]) was “appreciable skin lesions”. In addition, the “virus titers in skin” value in the data set with vaccinia virus (setting [2]) is listed as “Higher titers”. Moreover, the Weight in the data set with vaccinia virus (day 0, PALA 50, rifampicin 10 mg/kg/d or both) is 5.2 kg and 2.6 kg and 4.2 kg; in the data set with vaccinia virus (setting [3]), 4.6 kg and 2.4 kg and 3.8 kg; in the data set with vaccinia virus (day 14, PALA 50, rifampicin 10 mg/kg/d or both), 4.6 kg and 2.4 kg and 3.8 kg; with vaccinia virus (day 21, PALA 50, rifampicin 10 mg/kg/d or both), 4.8 kg and 2.6 kg and 4.0 kg. Besides, the “Vaccinia Lesion Score, group mean” value in the data set with vaccinia virus (day 3, PALA 50, rifampicin 10 mg/kg/d or both) is 0.4; in the data set on vaccinia virus (day 6, PALA 50, rifampicin 10 mg/kg/d or both), 1.2; in the data set with vaccinia virus (day 7, PALA 50, rifampicin 10 mg/kg/d or both), 1.7; in the data set on vaccinia virus (day 8, PALA 50, rifampicin 10 mg/kg/d or both), 1.3; in the data set on vaccinia virus (day 9, PALA 50, rifampicin 10 mg/kg/d or both) it was 1.2; with vaccinia virus (setting [3]) it was 1.6. Moreover, the “Vaccinia Lesion Score, group mean” value with vaccinia virus (day 13, PALA 50, rifampicin 10 mg/kg/d or both) was determined as 0.9. The “Vaccinia Lesion Score” value with vaccinia virus (day 6, PALA 50, rifampicin 10 mg/kg/d or both, per monkey) was 1.6 and 0.7 and 1.4. In addition, the signs of toxicity entry in the data set on vaccinia virus (except one monkey at PALA 125 mg/kg bolus) is on record as “No appreciable signs of toxicity”. In addition, the “Titer of vaccinia virus in skin biopsy” value with vaccinia virus (head prints day 6, PALA 50, rifampicin 10 mg/kg/d or both) is 1.5 × 10^7 PFU/ml and 1.2 × 10^5 PFU/ml and 1.1 × 10^5 PFU/ml.
